Patent publication US20240189343A1, “TREATMENT OF VIRUS INFECTIONS” (priority 2021, published 2024)
Structures can show the parent of a compound that is named as a salt. Where two headings read alike, the source gives them in different places.

Assays:
[1] = tested on: DENV1 (strain Hawaii); experiment: microbe, parasite or virus in culture; assay type: cell-based, dengue virus
[2] = tested on: DENV2 (strain New Guinea C); experiment: microbe, parasite or virus in culture; assay type: cell-based, dengue virus
[3] = tested on: DENV3 (strain H87); experiment: microbe, parasite or virus in culture; assay type: cell-based, dengue virus
[4] = tested on: DENV4 (strain H241); experiment: microbe, parasite or virus in culture; assay type: cell-based, dengue virus
[5] = tested on: ZIKV African lineage (Strain MP1751); experiment: microbe, parasite or virus in culture; assay type: cell-based, Zika virus
[6] = tested on: ZIKV Asian lineage (PF/13); experiment: microbe, parasite or virus in culture; assay type: cell-based, Zika virus
[7] = tested on: YF17D; experiment: microbe, parasite or virus in culture; assay type: cell-based, yellow fever virus
[8] = tested on: Zika virus PF13; experiment: Zika virus infection of HeLa Kyoto cells, immunofluorescence infectivity readout (Example 1); assay type: cell-based; settings: MOI 0.5, 3 and 5, 600, 200, 60 μg/ml, 1 h pre-incubation, 48 h
Experimental: (§1) Cells were detached and counted. […] 50 μl of diluted virus or media (uninfected control) was immediately added. […] After 48 h, the plates were washed with PBS, fixed for 30 mins with 4% formaldehyde, washed again with PBS, and stored in PBS at 4° C. until staining. Cells were immunostained with immunofluorescence staining. Briefly, any residual formaldehyde was quenched with 50 mM ammonium chloride, after which cells were permeabilised (0.1% Triton X100) and stained with an antibody recognizing flavivirus envelope protein (Millipore, MAB10216). The primary antibodies were detected with an Alexa-488 conjugate secondary antibody (Life Technologies, A11001), and nuclei were stained with Hoechst. […] Normalized percentages of inhibition were calculated using the following formula: […]

[9] = tested on: Zika virus PF13; experiment: Zika virus infection of Vero AD cells, immunofluorescence infectivity readout (Example 1); assay type: cell-based; settings: for inhibition of Zika virus infection: Vero AD cells, MOI 0.05 and 0.01, 600, 200, 60 μg/ml, 1 h pre-incubation, 48 h
Experimental: as §1

[10] = tested on: Huh-7 cells; settings: MTT, 48 h
[11] = tested on: HeLa Kyoto cells; experiment: MTT cytotoxicity in HeLa Kyoto cells (Example 2); settings: 48 h
[12] = tested on: Vero AD cells; experiment: MTT cytotoxicity on uninfected Vero AD cells (Example 1); settings: 600, 200, 60 μg/ml
[13] = tested on: HeLa Kyoto cells; experiment: MTT cytotoxicity on uninfected HeLa Kyoto cells (Example 1); settings: 600, 200, 60 μg/ml
[14] = tested on: Huh-7 and HeLa Kyoto cells; experiment: MTT cytotoxicity, Example 2, cell line not specified in the statement; settings: highest concentration tested (10 mg/ml); no cytotoxicity at the other concentrations
[15] = tested on: rats; settings: cited from earlier work
[16] = tested on: Zika virus; settings: 200 μg/ml; Vero cells; cited from earlier work

## CC[C@@]1([C@@H]2O[C@@H]([C@H]3O[C@@](O)(CO)[C@H](C)C[C@@H]3C)C[C@@H]2C)CC[C@H]([C@]2(C)CC[C@]3(C[C@H](O)[C@@H](C)[C@@H]([C@@H](C)[C@@H](OC)[C@H](C)C(=O)O)O3)O2)O1 [Monensin, Monensin sodium salt, reference compound]
[1]; Dengue virus, DENV1, Huh-7
  EC50: 1.19 nM
[2]; Dengue virus, DENV2, Huh-7
  EC50: 0.88 nM
[3]; Dengue virus, DENV3, Huh-7
  EC50: 0.69 nM
[4]; Dengue virus, DENV4, Huh-7
  EC50: 2.61 nM
[5]; Zika virus, HeLa Kyoto
  EC50: 70.7 nM
[6]; Zika virus, HeLa Kyoto
  EC50: 68.1 nM
[7]; Yellow fever virus, Huh-7
  EC50: 6.54 nM

## dextran sulfate [listing 1 of 3 here]
[8]
  inhibition of Zika virus infection: significant and dose dependent inhibition
[8]; listed as dextran sulfate
  inhibition of Zika virus infection: inhibits Zika virus infection in human Hela cells in a concentration dependent manner
[9]; 200 μg/ml, Vero cells, FIG. 2A (MOI 0.05)
  % of infection inhibition: more than 80%
[9]
  inhibition of Zika virus infection: significant and dose dependent inhibition
[9]; listed as dextran sulfate
  inhibition of Zika virus infection: inhibits Zika virus infection in Vero cells in a concentration dependent manner
[1]
  IC50 (inhibition of infection): ≤ 600 µg/mL
  inhibition of virus infection into human cells: > 90%
[1]; 48 h
  EC50: 290 µg/mL
[2]
  IC50 (inhibition of infection): ≤ 600 µg/mL
[2]; 48 h
  EC50: 120 µg/mL
[3]
  IC50 (inhibition of infection): ≤ 600 µg/mL
[3]; 48 h
  EC50: 30 µg/mL
[4]
  IC50 (inhibition of infection): ≤ 600 µg/mL
[4]; 48 h
  EC50: 610 µg/mL
[5]
  IC50 (inhibition of infection): less than 0.140 mg/ml
[5]; 48 h
  EC50: 60 µg/mL
[6]
  IC50 (inhibition of infection): less than 0.140 mg/ml
  inhibition of virus infection into human cells: > 90%
[6]; 48 h
  EC50: 140 µg/mL
[7]
  IC50 (inhibition of infection): less than 0.05 mg/ml
  inhibition of virus infection into human cells: > 90%
[7]; 48 h
  EC50: 40 µg/mL
[10]; table line Dengue virus 1 Hawaii strain (Huh-7)
  TC50: >10000 µg/mL
[10]; table line Dengue virus 2 New Guinea C strain (Huh-7)
  TC50: >10000 µg/mL
[10]; table line Dengue virus 3 H87 strain (Huh-7)
  TC50: >10000 µg/mL
[10]; table line Dengue virus 4 H241 strain (Huh-7)
  TC50: >10000 µg/mL
[10]; table line Yellow Fever virus 17D strain (Huh-7)
  TC50: >10000 µg/mL
[11]; table line Zika virus African strain (HeLa Kyoto)
  TC50: >10000 µg/mL
[11]; table line Zika virus Asian strain (HeLa Kyoto)
  TC50: >10000 µg/mL
[12]
  cytotoxicity (MTT): No significant cytotoxicity
[13]
  cytotoxicity (MTT): No significant cytotoxicity
[14]
  cytotoxicity (maximal): ≤ 16%

## dextran sulfate [listing 2 of 3 here]
[15]
  toxicity to rats: highly toxic

## dextran sulfate [listing 3 of 3 here]
[16]
  % infection inhibition: about 60%
